These results are taken from US20220142991A1, “METHODS AND COMPOSITIONS FOR TREATMENT OF L YSOSOMAL STORAGE DISORDER” (CHILDREN'S HOSPITAL MEDICAL CENTER, priority 2019, published 2022).

Assay [1] relates to 4L;C* mice. In words: Lifespan (Kaplan-Meier survival) in 4L;C* nGD mouse model. The format is in vivo. The following applies: rapamycin 6 mg/kg i.p. every 2 days from 2 weeks of age, untreated 59 days, buffer 60 days. An excerpt: The 4L;C* mouse is a transgenic animal model that is viable and mimics neurological deficits analogous to subacute neuronopathic Gaucher disease (nGD). The 4L;C* mice used in this and other examples disclosed herein were generated as described in Sun et al., Hum Mol Genet. 2010 Mar. 15; 19(6): 1088-1097, the disclosure of which is incorporated herein in its entirety. In brief, saposin C deficient (C^−/−) mice were generated by introducing a Cys→Pro substitution in the saposin C region of prosaposin. […] Saposin C is an essential activator for GCase. GCase V394L (4L/4L) mice were generated by germ-line transmission of a missense point mutation in the GCase (GBA) locus encoding for V394L. Next, saposin C^−/− mice were cross-bred with point mutated GCase V394L homozygotes (4L/4L) to generate 4L/wt;C^−/+ mice. 4L;C* mice (4L/4L;C^−/−) were produced by intercrossing 4L/4L;C^+/− with 4L/4L;C^+/−. The strain background of 4L;C* was originally C57BL/6J/129SvEV and backcrossed into pure C57BL/6J strain for more than 12 generations.

For assay [2], the system named is 4L;C* mice. The assay is described as follows: CD68 immunohistochemistry for activated microglia/macrophage in brain and spinal cord. Type of assay: in vivo, mouse. The text has this:
CD68, a classic marker of activated microglia/macrophage (Korzhevskii et al., (2016) Neurosci Behav Physi 46, 284-290), was used to determine CNS inflammation by immunohistochemistry staining. […] FIG. 6A.

Assay [3] has as its system inflammatory mediators. The assay is described as follows: RT-qPCR of inflammatory mediator mRNA in midbrain tissue. The format is in vivo, mouse. The protocol: Vitner et al., (2012) Brain. 135 (Pt 6):1724-35; Dasgupta et al., (2015) Hum Mol Genet. 15; 24(24):7031-48. The highly activated microglia/and astrocyte are the main source of multiple inflammatory mediators in brain. […] The isolated mRNA was subjected to quantitative reverse transcription PCR (RT-qPCR) analysis using oligos directed toward inflammatory mediator genes of interest, including cytokine, chemokine, and inflammation-related receptors. Specifically, RT-qPCR analysis was performed to detect mRNA expression levels of the following genes: tumor necrosis factor (TNF)-alpha, interleukin (IL)-1-beta (IL-1β), IL-6, IL-17A, transforming growth factor beta (TGF-β), chemokine ligand (CCL) 5 (CCL5), CCL2, CCL22 chemokine (C-X-C motif) ligand 2 (CXCL2), intercellular adhesion molecule 1 (ICAM1), tumor necrosis factor receptor 1 (TNFR1), Cluster of Differentiation 86 (CD86), EGF-like module-containing mucin-like hormone receptor-like 1 (F4/80), component 5 (C5), and complement component 5a receptor 1 (C5AR1).
On the technique in general: In qPCR the cycle at which signal appears reflects the starting amount.

Assay [4] concerns 4L;C* mice. In words: FACS analysis of microglia and leukocyte populations in brain. Type of assay: in vivo, mouse. The settings on record: brain hemispheres. An excerpt: Brain inflammation invariably results in a reshaping of the blood-borne leukocyte populations inhabiting the CNS. To elucidate the changes of resident immune cells (i.e., microglial cells) and infiltrated leukocytes in nGD brain and the effect rapamycin has on activation of immune cells and infiltration, flow cytometry was used to analyze different leukocyte populations in brain parenchyma, including CD45^+ cells, microglia, myeloid, lymphoid, macrophage and T cells. […] The hemispheres of the brain were separated, minced, and digested by incubation with […] collagenase IV for 30 min at 37° C. The resulting cell suspensions were then fractionated by density gradient separation using 25% Percoll® gradients at 520×g for 20 minutes. […] After removing myelin and top suspension layer, pelleted cells collected were then subjected to multicolor (5) fluorescence-activated cell sorting analysis (FACS) by co-staining with multiple antibodies that conjugated with various fluorochromes to identify microglia and subpopulations of leukocytes. FIG. 10A. […] FIG. 10B. […] FIG. 10B. […] FIG. 10B.
The frequency of microglia (CD45^intermediateCD11b^high) was increased in buffer-treated 4L;C* mice (1.9 fold) and decreased in rapamycin-treated 4L;C* mice (1.3-fold), which indicates reduced microgliosis in nGD brain. FIG. 10B. […] FIGS. 10C and 10D.

For assay [5], the system named is 4L;C* nBMT mice. The assay is described as follows: FACS analysis of donor-derived GFP+ migrated cells in brain after nBMT. The format is in vivo, mouse. The settings on record: 55 days of age. As to the method: Briefly, mice that express enhanced green fluorescent protein (GFP; C57BL/6 GFP/CD45.1) were used as bone marrow donors. Low-density bone marrow (LDBM) cells were harvested by flushing the hind-leg bones with Dulbecco's modified Eagle's medium (DMEM) containing 2% fetal calf serum (FCS) and 50 U penicillin/0.05 mg/mL streptomycin using a 23 G needle. The cells were passed through a 100 μm cell strainer. LDBM cells were isolated after density gradient centrifugation with Histopaque-1083. Viable cells were counted with trypan blue dye and resuspended in PBS containing 30 U/mL heparin. The recipient pups (˜3 days old of 4L;C or 4L;norm) were subjected to myelosuppressive conditioning with the chemotherapeutic agent busulfan by intraperitoneal injection at 20 mg/kg. Twenty-four hours later, the 4L;C and 4L;norm recipient pups then received about 1×10^6 GPF+ donor cells via injection into super-facial temple vein (nBMT). 4L;C nBMT mice were then given an i.p. injection of rapamycin or buffer every other days starting at 21 days of age. […] Multicolor FACS analysis was conducted as described above to analyze contribution of GFP+ migrated cells in microglia and subpopulations of leukocytes. FIG. 11A. The frequency of donor-derived GFP+ cells among different leukocyte populations in brain parenchyma was quantified, including CD45^+ cells, microglia, myeloid, lymphoid, macrophage and T cells. Table 1. In busulfan-conditioned mice, engraftment of GFP+ microglial cells was increased in 4L;C* mice compared to 4L normal mice, regardless of treatment with buffer or rapamycin. Table 1. […] FIG. 11B.
On the technique in general: Flow cytometry measures light scatter and fluorescence of single cells or particles in a stream.

In assay [6] the test system is 4L;C* mice. In words: Relative bodyweight in 4L;C* nGD mouse model. The settings on record: 6 mg/kg i.p. every 2 days, bodyweight normalized to age 30 days, untreated/buffer Day 52.
Method: To assess the effect of rapamycin on nGD, rapamycin (6 mg/kg) was administered to 4L;C* mice by intraperitoneal (i.p.) injection every 2 days starting from 2-weeks of age (4L;C* rapa). […] The lifespan of the mice was monitored daily from 40 days of age until 90 days of age or until death. The Kaplan-Meier method was used to estimate survival probability and a log-rank test was used to compare the Kaplan-Meier survival curves of the four different experimental groups.
Additionally, the bodyweight the mice was measured daily from 20 days of age until 90 days of age or until death. Relative bodyweight curves were normalized by weight value of each animal at the age of 30 days.
Assay [7] concerns 4L;C* mice. In words: GFAP immunohistochemistry for activated astrocytes in brain. The settings on record: middle brain, brain stem, Day 55.
Method: To visualize reactive astrocytes in nGD mice, immunohistochemistry (IHC) was performed. In brief, brains were harvested from well-perfused rapamycin treated 4L;C* mice, buffer-treated 4L;C* mice, and 4L normal mice at age of Day 55. Sagittal brain cryosections (8 um) were mounted on gelatin-coated slides, air-dried, and subjected to IHC staining using the BenchMark XT IHC/ISH staining module. For GFAP staining, the sections were incubated in buffer solution containing 0.1% trypsin for 5 minutes at room temperature. For morphometric analysis, hematoxylin-eosin co-staining was performed according to standard protocols. Endogenous peroxidase activity was quenched by incubation of the sections for 5 minutes with 3% hydrogen peroxide. Sections were incubated overnight at 4° C. in primary antibodies for GFAP rabbit polyclonal antibody. Staining was detected using biotin-labeled anti-rabbit secondary antibodies and streptavidin conjugated to horseradish peroxidase. Sections were examined with microscope using computer-assisted image analysis software.
Assay [8] relates to 4L;C* mice. The assay is described as follows: Fluoro-Jade C (FJC) staining for degenerating neurons in brain cryosections. The settings on record: most brain regions, Day 55, vs buffer-treated 4L;C*.
Method: To visualize degenerative neurons in nGD mice, brains were harvested from well-perfused rapamycin treated 4L;C* mice, buffer-treated 4L;C* mice, and 4L normal, untreated mice at age of Day 55. Sagittal brain cryosections (10 μm) were mounted on gelatin-coated slides, air-dried, and subjected to FJC staining. The slides were first immersed in a solution containing 1% NaOH in 80% ethanol for 5 minutes. They were rinsed for 2 minutes in 70% ethanol and for 2 minutes in distilled water, then incubated in 0.06% potassium permanganate solution for 10 minutes. Following a water rinse for 2 minutes, slides were transferred to the FJC staining solution and stained for 10 minutes. The proper dilution was accomplished by first making a 0.01% stock solution of FJC dye (Chemicon, Temecula, Calif., USA) in distilled water and then adding 1 ml of the stock solution to 99 ml of 0.1% acetic acid. Slides were washed three times each for 1 minute and then air-dried on a slide warmer at 50° C. for 30 minutes. After clearing in xylene and coverslipping, sections were examined under an epifluorescence microscope.

For `CO[C@H]1C[C@@H]2CC[C@@H](C)[C@@](O)(O2)C(=O)C(=O)N2CCCC[C@H]2C(=O)O[C@H]([C@H](C)C[C@@H]2CC[C@@H](O)[C@H](OC)C2)CC(=O)[C@H](C)/C=C(\C)[C@@H](O)[C@@H](OC)C(=O)[C@H](C)C[C@H](C)/C=C/C=C/C=C/1C` [rapamycin], the median survival in assay [1] is reported as 82 days. Moreover, in assay [2] (all brain regions except cerebellar DCN, Day 55), the “reduction of CD68+ area” value was 53-62%. In addition, the “reduction of CD68 signals” value in assay [2] (spinal cord) is 56%. Also, the “CCL2 mRNA expression” value in assay [3] (Day 55, buffer-treated 16.6-fold) amounted to 9 fold. In addition, the “CCL5 mRNA expression” value in assay [3] (Day 55, compared to normal littermates, buffer-treated 47-fold) came out at 23 fold. The “frequency of microglia (CD45intermediate CD11bhigh)” value in assay [4] (buffer-treated 1.9 fold) stood at 1.3 fold. Also, the “percentage of total CD45+ cells in brain” value in assay [4] (buffer-treated 2.2-) amounted to 1.4 fold. Moreover, in assay [5], the “Frequency of GFP+ cells among CD45+” value was 2.87, the “Frequency of GFP+ cells among Lymphoid” value is 29.3, the “Frequency of GFP+ cells among Macrophage” value amounted to 19.5 and the “Frequency of GFP+ cells among Microglia” value was 1.56. In assay [5], the “Frequency of GFP+ cells among Myeloid” value is recorded as 17.4 and the “Frequency of GFP+ cells among T Cell” value came to 37.6. Besides, the “starting age for bodyweight to show significant difference from normal controls (4L;norm)” value in assay [6] stood at 75 days. For the same compound, the “decrease of GFAP signal” value in assay [7] was 36-74%. The “reduction of degenerating neuronal signals (FJC)” value in assay [8] was 29-45%.
